Legend:
[1] = Blood levels after oral gavage of adult rats
From the text: In the treatment of certain localized cancers, the degree of hydrophilicity of the non-antimicrobial tetracycline compound can be of lesser importance.

[2] = test system: DU-145 and TSU-PR1 prostate cancer cell lines; test: Prostate cancer cell viability/proliferation (trypan blue, MTT); type: cell-based, human; settings: exposure time not stated (24 hr or 48 hr)
From the text: To determine the cytotoxicity of CMTs on prostate tumor cell lines, TSU-PR1 cells (and cells of other tumor cell lines) were exposed to various CMTs or to doxycycline for 24 hr or 48 hr in a complete medium. Cell viability (percent of live cells) was estimated by counting the cells following trypan blue staining. Cellular viability was also estimated by the tetrazolium dye reduction assay (MTT assay) (Lokeshwar et al. 1995b). Due to the aggressive proliferative capacity of cancer cells, it is assumed that viable cells are actively proliferating. Therefore, the measurement of viability was used as an estimate of proliferation. Results are expressed as Mean±SEM from three separate experiments.

[3] = test system: Dunning MAT LyLu cells; test: Cytotoxic effect on MAT LyLu cells (trypan blue); type: cell-based, rat; settings: 24 hr or 48 hr exposure
Method: Cell viability was estimated by trypan blue staining following exposure to the drugs. The results of these studies are summarized in FIG. 4A (24 hours) and FIG. 4B (48 hr). Data are presented as Mean±SEM from three separate experiments.

[4] = test system: E-10 Cells; test: MTS cytotoxicity assay, E-10; settings: two days
Method: (§3) A panel of chemically modified tetracycline compounds and doxycycline were tested for cytotoxicity against two carcinomas: COLO 205 (a human colon carcinoma-derived cell line) and the E-10 clone of MDA-MB-231 (a human breast carcinoma-derived cell line). Cytoxicity was measured using a conventional assay for viability with a tetrazolium salt (MTS). Cells were grown in media containing the CMTs at concentrations ranging from 5 μM to 100 μM for two days. The cells were then incubated with the MTS for several hours before removal of the supernatant medium for determination of formazan, which is generated only by the viable cells. Results are expressed as percent cytotoxicity, which is simply the percent decline in measured formazan concentration in the sampled medium.

[5] = molecular target: T1, Gelatinase A (Homo sapiens, UniProt P08253); test: Zymography with densitometry of C8161 conditioned medium, gelatinase A; type: cell-based; settings: 50 μg/mL, 24 hr
T1 construct: endogenous in cells; host or cells: C8161
T1 sequence (P08253 110-660): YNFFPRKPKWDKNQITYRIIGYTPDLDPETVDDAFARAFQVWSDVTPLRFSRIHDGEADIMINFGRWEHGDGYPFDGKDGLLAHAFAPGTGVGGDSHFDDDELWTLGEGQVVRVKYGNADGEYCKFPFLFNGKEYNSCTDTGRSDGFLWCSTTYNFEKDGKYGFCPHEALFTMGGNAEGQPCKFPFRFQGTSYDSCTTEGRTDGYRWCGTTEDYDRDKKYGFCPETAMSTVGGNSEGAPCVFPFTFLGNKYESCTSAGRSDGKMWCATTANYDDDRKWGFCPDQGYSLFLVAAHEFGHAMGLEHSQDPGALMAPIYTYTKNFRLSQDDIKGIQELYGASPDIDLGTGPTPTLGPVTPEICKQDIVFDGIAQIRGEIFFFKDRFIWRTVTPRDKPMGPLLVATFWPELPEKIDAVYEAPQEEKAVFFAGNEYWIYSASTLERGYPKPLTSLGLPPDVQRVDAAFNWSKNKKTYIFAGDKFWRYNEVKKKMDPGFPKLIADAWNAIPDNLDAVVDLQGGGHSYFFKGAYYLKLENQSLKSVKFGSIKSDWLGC
Method: (§1) Six hundred thousand (6×10^5) C8161 cells were seeded per well in a 12-well dish coated with a laminin/collagen IV/gelatin matrix in DMEM plus Mito+ and 0.1% gentamicin sulfate. After approximately 1 hr incubation to allow the cells to attach, 50 μg/mL of either doxycycline or one of the other CMTs was added per well and the dish then placed in a 37° C. humidified 5% CO2 incubator. After 24 hr, the supernatants were removed and centrifuged to remove any cells or debris. One volume of Laemmli sample buffer minus reductant was added to two volumes of the medium, and this sample electrophoresed without prior heating or boiling on a 10% SDS-PAGE containing 0.1% gelatin (samples normalized based on the same number of cells per volume of medium per time of incubation). After electrophoresis, the gels were washed with gentle shaking at room temperature for 30 min in 50 mM Tris-HCl (pH 7.5) plus 2.5% TRITON® X100 plus 50 μg/mL of the corresponding CMT used in the original treatment. The gel was then placed in incubation buffer (50 mM Tris-Cl/10 mM CaCl2/150 mM NaCl/0.05% NaN3) also containing 50 μg/mL of the corresponding CMT, and incubated at 37° C. for 20-24 hr. The gels were stained with Coomassie BBR-250, then destained with 10% methanol/10% acetic acid in water until the wash remained clear. A photographic negative of the gel was digitized using a video camera and Snappy Video Snapshot system (Play Inc., Rancho Cordova, Calif.). An integrated density was determined for each of the cleared zones of proteolysis using the software ImagePC8α (freely available from the National Institutes of Health), and the corresponding changes in gelatinolytic activities reported compared to the control samples normalized to a value of 1.0.

[6] = test system: COLO 205 Cells; test: MTS cytotoxicity assay, COLO 205; settings: two days
Method: as §3

[7] = molecular target: T2, Gelatinase B (Homo sapiens, UniProt P14780); test: Zymography with densitometry of C8161 conditioned medium, gelatinase B; type: cell-based; settings: 50 μg/mL, 24 hr
T2 construct: endogenous in cells; host or cells: C8161
Method: as §1

[8] = test system: Dunning MAT LyLu cells; test: Matrigel invasion assay (Boyden chamber, MTT), MAT LyLu; type: cell-based, rat; settings: MAT LyLu, 5 μg/mL, 48 hr
Method: (§2) In this method, 4×10^5 tumor cells were plated on the top chamber of the Boyden chemotaxis assay chambers (Costar Transwell plates). The bottom side of the chamber was a 12 μm-pore polycarbonate filter layered with 0.5 mm thick layer of Matrigel. The bottom well contained a chemoattractant, a serum-free culture-conditioned medium from FHS 733 cells, a line of human fetal lung fibroblasts (ATCC No. HTB-157). Cancer cells (4×10^5) were plated in the top wells of the plates. Doxycycline or CMTs were diluted in a serum-free medium to 5 μg/mL, and were added to both top and bottom chambers. […] After 48 hr incubation, MTT was added to both the top and bottom wells (0.5 mg/mL), and incubation was continued for 4 hr. Wells were then emptied, and the cells from the undersides of the filter were pooled with those in the bottom wells with a filter tip. The reduced MTT (formazan) from top and bottom wells was solubilized with DMSO overnight, and absorbance (O.D.) at 515 nm was measured. The ratio of the O.D. from the bottom wells to that of the total (i.e., O.D. of top plus bottom wells) was taken as the invasive potential. […] The MTT assay procedure also normalizes the coincident inhibition due to the cytotoxic effects of the agents under investigation. Results presented are from three independent experiments.

[9] = Solubility in aqueous systems; type: physicochemical
[10] = test system: C8161 human melanoma cells; test: In vitro invasion assay (MICS), laminin/collagen IV/gelatin matrix-coated filter; type: cell-based; settings: 3, 20 and 50 μg/mL; for Percent Inhibition of invasive potential: 48 hr
Method: The in vitro invasive potentials of the control (DMSO only) and chemically-modified tetracycline treated cells were measured using a modified Boyden chamber as previously described (Membrane Invasion Culture System, MICS). An intervening barrier consisting of a polycarbonate filter containing 10 μm pores (Osmonics, Livermore, Calif.) coated with a defined matrix of human laminin/collagen IV/gelatin (Sigma, St. Louis, Mo.) was used for these studies. […] Doxycycline or individual CMTs were then added to different wells of the chamber at 3, 20 or 50 μg/mL 2 hr post-seeding and daily during the assay. After 48 hr, the cells were removed from the lower wells and the number of invasive cells was determined and compared to the original number of cells seeded into the upper wells. Where appropriate, data were corrected for proliferation during the period of the in vitro assay.

[11] = test system: C8161 cells; test: C8161 cell proliferation (doubling time); type: cell-based, human; settings: 50 μg/mL; for Doubling Time: on plastic, DMSO 22 hr; for increase of doubling time: versus DMSO
Method: Cell Culture and Maintenance: C8161 cells, a human melanoma cell line, were maintained in Dulbecco's modified Eagle's medium (DMEM; […] These cells were routinely screened for Mycoplasma contamination using the GenProbe Rapid Detection System (Fisher Scientific; Chicago, Ill.). Chemically Modified Tetracyclines: Fresh stock solutions of the chemically modified tetracycline compounds (2 mg/mL) were prepared for each experiment by hydrating in 2% dimethyl sulfoxide (DMSO)/water pH 10, then adjusting to pH 7.4 using 1.0 M HCl. […] Sigma Chem. Co.; control) or 50 μg/mL of doxycycline or the other CMTs (three wells on each plate per compound). […] The doubling time for C8161 cells in the presence of each compound was then determined and compared to the DMSO treated cells (control).

[12] = test system: TSU-PR1 cells; test: Matrigel invasion assay (Boyden chamber, MTT), TSU-PR1; type: cell-based, human; settings: TSU-PR1, 48 hr
Method: as §2

[13] = test system: C8161 cells; test: In vivo metastasis assay, C8161 cells i.v. in SCID mice; settings: for Number of Lung Metastases/Mouse: Average ± SEM, control 231 ± 49
Method: Immunosuppressed mice (athymic nude/nude SCID females from Harlan Sprague Dawley) were housed in autoclaved cages with microisolator tops, and all manipulations of the animals were done in a laminar flow hood after wiping down both the hood, gloves and cages with ABQ sterilant. The mice were fed sterile Pico Lab Chow (Purina) and autoclaved St. Louis tap water. […] The compounds and control (sterile water plus 2% carboxymethyl cellulose) were kept stored at −80° C. wrapped in aluminum foil to prevent any light induced changes, and each day's supply was thawed just prior to use. Four compounds were tested for their effects on the metastatic potential of C8161 cells injected intravenously via the tail vein: […] The concentration of the compounds in the vials used to give the 100 mg/kg doses were 2.5 times that in the 40 mg/kg dose so that approximately the same volume was used in both cases, approximately 0.5 mL/animal. The experiments started with nine animals per group at day −4. On day zero, 2×10^5 C8161 cells in cold Hank's Balanced Salt Solution (HBSS) were injected intravenously via tail vein inoculation. The experiment was continued for an additional 24 days, at which time the animals were sacrificed and their lungs removed and fixed in a solution of Bouins/formaldehyde (5 parts:1 part). Tumors were quantitated on the entire surface of the lungs by rotating the lungs and counting the tumors on each lobe using a 6× magnifying glass. Statistical analysis was performed using the statistical package of Microsoft's Excel spreadsheet software.

T2 sequence (P14780 94-707): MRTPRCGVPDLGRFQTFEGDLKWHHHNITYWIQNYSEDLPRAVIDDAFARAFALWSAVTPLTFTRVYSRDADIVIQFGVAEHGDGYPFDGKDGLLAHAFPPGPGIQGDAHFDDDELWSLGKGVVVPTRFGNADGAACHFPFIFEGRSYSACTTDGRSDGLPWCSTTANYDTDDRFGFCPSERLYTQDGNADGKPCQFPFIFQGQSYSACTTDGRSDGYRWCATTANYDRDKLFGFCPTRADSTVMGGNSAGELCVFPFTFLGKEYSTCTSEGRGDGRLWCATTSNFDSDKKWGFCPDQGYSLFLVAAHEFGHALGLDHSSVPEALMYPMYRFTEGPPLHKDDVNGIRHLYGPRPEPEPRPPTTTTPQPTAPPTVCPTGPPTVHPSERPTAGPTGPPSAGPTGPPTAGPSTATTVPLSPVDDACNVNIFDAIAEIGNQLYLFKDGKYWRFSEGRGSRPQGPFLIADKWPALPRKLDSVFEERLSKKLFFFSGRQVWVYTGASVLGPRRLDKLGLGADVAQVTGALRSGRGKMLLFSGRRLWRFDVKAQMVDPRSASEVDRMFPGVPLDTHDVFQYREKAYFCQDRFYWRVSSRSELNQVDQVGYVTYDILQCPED

Structure (SMILES) | 50% inhibition dose (IC50), cell proliferation [2] | percent cytotoxicity ([4]; 5 μM) | percent cytotoxicity ([4]; 10 μM) | percent cytotoxicity ([4]; 20 μM) | percent cytotoxicity ([4]; 50 μM) | percent cytotoxicity ([4]; 100 μM) | Gelatinase A, integrated density normalized to control 1.00 [5] | percent cytotoxicity ([6]; 5 μM) | percent cytotoxicity ([6]; 10 μM) | percent cytotoxicity ([6]; 20 μM) | percent cytotoxicity ([6]; 50 μM) | percent cytotoxicity ([6]; 100 μM) | Gelatinase B, integrated density normalized to control 1.00 [7] | Type of Inhibition [10] | Percent Inhibition of invasive potential [10] | Doubling Time [11] | increase of doubling time [11] | also measured
CN(C)C1C(=O)C(C#N)=C(O)C2(O)C(=O)C3=C(O)c4c(O)cccc4C(C)(O)C3CC12 (stereo not drawn) [CMT-2, tetracyclinonitrile] | 5.7 µg/mL | 1.5% | 3.8% | 0.8% | 0% | 2.3% | 0.89 | 2.7% | 4.5% | 0% | 7% | 16.3% | 1.51 | non-dose | ˜10% | – | – | blood levels ([1]; rat, in vivo, po): no detectable blood levels; inhibition of cell proliferation (rank among tested drugs) [3]: most effective inhibitors of cell proliferation; inhibition of invasive/metastatic potential (Matrigel invasion) [8]: equally inhibited; solubility in aqueous systems [9]: low solubility in aqueous systems
CC1(O)c2cccc(O)c2C(=O)C2=C(O)C3(O)C(=O)C(C(N)=O)=C(O)C(O)C3CC21 (stereo not drawn) [CMT-6, 4-hydroxy-4-de(dimethylamino)tetracycline] | 120 µg/mL | 0% | 6% | 3% | 7.6% | 16.7% | 0.07 | 1.7% | 0% | 0% | 0% | 22.2% | 0.51 | dose dependent | 8-50% | 24 h | approximately 9% | blood levels ([1]; adult rats, oral gavage): no detectable blood levels
CC1(O)c2cccc(O)c2C(=O)C2=C(O)C3C(=O)C(C(N)=O)=C(O)CC3CC21 (stereo not drawn) [CMT-7, 4-de(dimethylamino)-12α-deoxytetracycline] | – | 0% | 0% | 0% | 0% | 8.3% | 0.17 | 0% | 0% | 0% | 0% | 29.4% | 1.22 | non | 15-55% | 24 h | approximately 9% | 50% inhibitory dose (IC50), Matrigel invasion [12]: > 100 µg/mL; Number of Lung Metastases/Mouse ([13]; 40 mg/kg daily intragastric): 136 ± 107; Number of Lung Metastases/Mouse ([13]; 100 mg/kg daily intragastric): 166 ± 101; effect on number of lung metastases (significance) ([13]; at either dosage, p>0.05): did not significantly reduce the number of lung metastases

From patent US6429204B1, “Method of inhibiting cancer growth” (University of Miami, priority 1997, dated 2002)
